Measurements published in ChEMBL document CHEMBL1201862, “PubChem BioAssay data set” (2004).
Activity calls are given as the source filed them.

Legend:
[1] = biological target: Potassium voltage-gated channel subfamily KQT member 2 (Rattus norvegicus, UniProt O88943); test: potentiation of rat KCNQ2 current – cell-based, retigabine-insensitive compounds, dose response (AID 2654); type: functional
[2] = HPDE-C7 pancreatic duct cell viability loss – fluorescence, HTS (AID 430); type: functional, cell-based; conditions: Homo sapiens
[3] = biological target: Glucose-6-phosphate 1-dehydrogenase (Homo sapiens, UniProt P11413); test: inhibition of Homo sapiens G6PD, dose series – biochemical, fluorescence, selectivity assay for P. falciparum G6PD inhibitor project, dose response (AID 504792); type: functional
[4] = biological target: Phosphomannomutase 2 (Homo sapiens, UniProt O15305); test: Counter screen SAR assay for PMM2 inhibitors via a fluorescence intensity assay. [Related pubchem assays (depositor defined):AID1545, AID1574]
[5] = Trypanosoma cruzi growth suppression in host cells – NIH3T3 host cells, beta-gal luminescence, confirmation (AID 2044); type: functional, cell-based;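 also: intracellular parasites grown in NIH/3T3 mouse fibroblasts as host cells; luminescent beta-galactosidase reporter signal from transgenic T. cruzi replicating inside host cells; inhibitors lower the luminescence signal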
[6] = biological target: T1, Mannose-6-phosphate isomerase (Homo sapiens, UniProt P34949); test: phosphomannose isomerase inhibition – biochemical, fluorescence intensity, confirmation (AID 1535)
T1 sequence (P34949 whole entry): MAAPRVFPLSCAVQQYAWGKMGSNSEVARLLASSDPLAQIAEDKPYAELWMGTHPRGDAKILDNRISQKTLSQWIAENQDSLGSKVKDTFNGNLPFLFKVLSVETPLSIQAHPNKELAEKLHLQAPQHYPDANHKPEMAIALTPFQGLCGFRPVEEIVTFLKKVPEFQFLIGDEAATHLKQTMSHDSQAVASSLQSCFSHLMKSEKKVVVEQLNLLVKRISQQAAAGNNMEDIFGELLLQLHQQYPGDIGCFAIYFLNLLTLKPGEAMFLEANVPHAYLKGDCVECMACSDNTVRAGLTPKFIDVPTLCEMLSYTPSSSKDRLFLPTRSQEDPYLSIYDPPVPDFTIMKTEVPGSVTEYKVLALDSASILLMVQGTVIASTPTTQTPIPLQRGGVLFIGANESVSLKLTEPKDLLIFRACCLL

[7] = viability loss of HPDE-C7K cells – cell-based, fluorescence, HTS, primary screen (AID 431); type: functional; conditions: Homo sapiens
[8] = biological target: Phosphoethanolamine/phosphocholine phosphatase (Homo sapiens, UniProt Q8TCT1); test: SAR assay for compounds that inhibit PHOSPHO1. [Related pubchem assays (depositor defined):AID1545, AID1565, AID1574]
[9] = NIH3T3 cell viability loss – ATP luminescence, mouse fibroblasts, counter-screen, dose response (AID 2010); type: functional, cell-based;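 also: cells exposed to compound for about 90 hours before reading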
[10] = biological target: T2, RNA-binding protein pos-1 (Caenorhabditis elegans, UniProt G5EF15); test: disruptors of C. elegans POS-1 RNA interaction – biochemical, fluorescence polarization, dose response (AID 1964);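 also: purified POS-1 fused to maltose binding protein made in E. coli; potency of compounds blocking POS-1 binding to fluorescent RNA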
T2 sequence (G5EF15 whole entry): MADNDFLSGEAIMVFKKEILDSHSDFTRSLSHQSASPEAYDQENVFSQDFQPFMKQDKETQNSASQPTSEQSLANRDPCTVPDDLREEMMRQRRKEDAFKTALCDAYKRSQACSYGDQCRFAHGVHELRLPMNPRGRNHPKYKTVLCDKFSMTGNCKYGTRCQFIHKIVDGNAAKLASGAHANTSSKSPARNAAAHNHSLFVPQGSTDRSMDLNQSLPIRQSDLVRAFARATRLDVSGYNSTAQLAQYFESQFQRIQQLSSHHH

[11] = biological target: Protein Rev (Human immunodeficiency virus type 1 group M subtype B (isolate HXB2)(HIV-1), UniProt P04618); test: blockers of HIV Rev/RRE RNA complex – biochemical, fluorescence polarization, HIV-1, dose response (AID 434976); set-up: species or system Human immunodeficiency virus 1
[12] = biological target: Female germline-specific tumor suppressor gld-1 (Caenorhabditis elegans, UniProt Q17339); test: blockers of GLD-1/TGE RNA complex formation – biochemical, fluorescence polarization, C. elegans, dose response (AID 2802);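 also: fluorescence polarization of labeled TGE RNA bound by purified gld-1 protein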
[13] = biological target: T3, Zinc finger protein mex-5 (Caenorhabditis elegans, UniProt Q9XUB2); test: potency of MEX-5 RNA-binding blockers – biochemical, C. elegans, fluorescence polarization, dose response (AID 1960)
T3 sequence (Q9XUB2 whole entry): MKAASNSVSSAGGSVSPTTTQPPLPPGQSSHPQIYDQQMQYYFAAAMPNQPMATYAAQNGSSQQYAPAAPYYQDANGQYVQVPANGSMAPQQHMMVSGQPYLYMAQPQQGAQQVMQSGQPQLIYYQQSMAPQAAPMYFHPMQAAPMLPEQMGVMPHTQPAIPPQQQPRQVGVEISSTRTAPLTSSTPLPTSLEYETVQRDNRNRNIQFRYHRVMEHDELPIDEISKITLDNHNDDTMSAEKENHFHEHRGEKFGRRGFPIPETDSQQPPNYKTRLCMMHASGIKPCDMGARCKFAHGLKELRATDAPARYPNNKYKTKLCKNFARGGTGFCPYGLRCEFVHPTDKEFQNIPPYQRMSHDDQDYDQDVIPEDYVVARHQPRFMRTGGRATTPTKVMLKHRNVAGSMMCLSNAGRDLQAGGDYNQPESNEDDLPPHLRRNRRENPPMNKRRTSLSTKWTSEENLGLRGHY

[14] = biological target: T4, Protein phosphatase methylesterase 1 (Homo sapiens, UniProt Q9Y570); test: endogenous PME-1 and serine hydrolase inhibition – cell lysate, mouse brain cytosol, FP-rhodamine, gel ABPP, selectivity assay for PME-1 inhibitor project, dose response, panel member PME-1 Assay Panel member description: Inhibition of endogenously expressed PME-1 (AID 2366)
[15] = biological target: T4, Protein phosphatase methylesterase 1; test: Late stage results from the probe development effort to identify inhibitors of the protein methylesterase PME-1: Gel-based Activity-Based Protein Profiling (ABPP) IC50: Purified enzyme.; type: functional
[16] = biological target: T5, Small ubiquitin-related modifier 1 (Homo sapiens, UniProt P63165); test: SUMO1 protein interaction blockers, potency – biochemical, fluorescence polarization, uHTS hits, dose response (AID 624382); type: functional; conditions: read-out: IC50_Mean
[17] = biological target: T6, Probable nicotinate-nucleotide adenylyltransferase (Staphylococcus aureus (strain N315), UniProt P65502); type: functional, Staphylococcus aureus subsp. aureus N315; conditions: read-out: IC50_Mean;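 as to IC50 Mean: confirmatory dose-response retesting of NadD inhibitor hits first found in an ultra-high-throughput screen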
[18] = biological target: T7, Small ubiquitin-related modifier 2 (Homo sapiens, UniProt P61956); test: SUMO2 binding disruption by SUMO1 hits – biochemical, FRET, human SUMO2, uHTS hits, selectivity assay for SUMO1 interaction inhibitor project, dose response (AID 624384); type: functional; conditions: read-out: IC50_Mean
[19] = biological target: DNA (cytosine-5)-methyltransferase 1 (Homo sapiens, UniProt P26358); test: inhibition of DNA methylation by DNMT1 – biochemical, fluorescent molecular beacon, confirmation (AID 602386); type: functional
[20] = biological target: T5, Small ubiquitin-related modifier 1; test: SUMO1 protein-protein binding blockers, potency – biochemical, FRET, dose response (AID 624383); type: functional; conditions: read-out: IC50_Mean
[21] = biological target: T7, Small ubiquitin-related modifier 2; test: disruption of SUMO2 interaction with SIM peptide – biochemical, fluorescence polarization, uHTS hits, selectivity assay for SUMO1 interaction inhibitor project, dose response (AID 624385); type: functional; conditions: read-out: IC50_Mean
[22] = biological target: Beta-galactosidase (Escherichia coli, UniProt Q8VNN2); test: detection-enzyme interference by beta-gal modulators – biochemical, E. coli enzyme, set 3, artefact control for CCR6 antagonist project, dose response (AID 504712); type: functional
[23] = biological target: T6, Probable nicotinate-nucleotide adenylyltransferase; type: functional, Staphylococcus aureus subsp. aureus N315
[24] = biological target: Serine/threonine-protein phosphatase (Homo sapiens, UniProt Q9BPW0); test: Counterscreen for inhibitors of PP1: fluorescence-based biochemical high throughput dose response assay to identify inhibitors of Protein Phosphatase 5 (PP5). [Related pubchem assays: 2034 (Summary (PP5 inhibitors)), 1987 (PP5 inhibitors in singlate), 2235 (PP1 inhibitors in singlate)]
[25] = cells; type: functional
[26] = THP-1 cell cytotoxicity, dose response, cytotoxicity control for non-replicating M. tuberculosis project (AID 489025); type: functional
[27] = biological target: Voltage-dependent T-type calcium channel subunit alpha-1H (Homo sapiens, UniProt O95180); type: functional;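 also: channel activity triggered by adding a high calcium stimulation buffer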
[28] = biological target: Nonstructural protein 1 (Influenza A virus, UniProt Q194T2); type: functional, Influenza A virus (A/California/07/2009(H1N1))
[29] = biological target: Glyceraldehyde-3-phosphate dehydrogenase (Homo sapiens, UniProt P04406)
[30] = Vero E6 cell cytotoxicity, dose response, cytotoxicity control for non-replicating M. tuberculosis project, secondary assay (AID 492998); type: functional, VeroE6; conditions: Vero C1008
[31] = biological target: Serine/threonine-protein phosphatase PP1-alpha catalytic subunit (Homo sapiens, UniProt P62136); test: inhibition of protein phosphatase 1 activity – biochemical, fluorescence, dose response (AID 2403);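 also: phosphatase turnover of OMFP into fluorescent 3-O-methylfluorescein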

T5 sequence (P63165 whole entry): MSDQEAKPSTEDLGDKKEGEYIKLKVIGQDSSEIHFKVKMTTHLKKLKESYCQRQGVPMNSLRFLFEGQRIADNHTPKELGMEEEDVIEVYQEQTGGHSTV
T7 sequence (P61956 whole entry): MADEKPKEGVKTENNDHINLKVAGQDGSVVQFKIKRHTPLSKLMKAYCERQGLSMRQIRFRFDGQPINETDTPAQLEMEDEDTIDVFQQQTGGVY
T6 sequence (P65502 whole entry): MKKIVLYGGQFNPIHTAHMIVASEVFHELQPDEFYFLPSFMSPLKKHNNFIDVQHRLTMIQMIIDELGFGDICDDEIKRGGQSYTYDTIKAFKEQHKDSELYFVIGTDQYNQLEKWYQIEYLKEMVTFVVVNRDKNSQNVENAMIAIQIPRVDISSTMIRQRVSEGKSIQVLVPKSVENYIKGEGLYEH
T4 sequence (Q9Y570 whole entry): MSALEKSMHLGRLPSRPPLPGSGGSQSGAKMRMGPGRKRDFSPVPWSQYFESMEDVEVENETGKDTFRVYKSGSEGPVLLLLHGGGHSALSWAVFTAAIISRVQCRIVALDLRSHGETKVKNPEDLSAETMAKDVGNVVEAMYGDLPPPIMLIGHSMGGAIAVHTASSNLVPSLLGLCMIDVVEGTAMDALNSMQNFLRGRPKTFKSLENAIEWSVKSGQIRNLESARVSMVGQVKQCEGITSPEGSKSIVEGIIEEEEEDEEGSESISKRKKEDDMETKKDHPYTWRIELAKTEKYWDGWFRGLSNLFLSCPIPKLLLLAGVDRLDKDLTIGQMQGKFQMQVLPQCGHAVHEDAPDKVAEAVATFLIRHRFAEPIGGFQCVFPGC
Sequence of DNA (cytosine-5)-methyltransferase 1 (P26358 whole entry): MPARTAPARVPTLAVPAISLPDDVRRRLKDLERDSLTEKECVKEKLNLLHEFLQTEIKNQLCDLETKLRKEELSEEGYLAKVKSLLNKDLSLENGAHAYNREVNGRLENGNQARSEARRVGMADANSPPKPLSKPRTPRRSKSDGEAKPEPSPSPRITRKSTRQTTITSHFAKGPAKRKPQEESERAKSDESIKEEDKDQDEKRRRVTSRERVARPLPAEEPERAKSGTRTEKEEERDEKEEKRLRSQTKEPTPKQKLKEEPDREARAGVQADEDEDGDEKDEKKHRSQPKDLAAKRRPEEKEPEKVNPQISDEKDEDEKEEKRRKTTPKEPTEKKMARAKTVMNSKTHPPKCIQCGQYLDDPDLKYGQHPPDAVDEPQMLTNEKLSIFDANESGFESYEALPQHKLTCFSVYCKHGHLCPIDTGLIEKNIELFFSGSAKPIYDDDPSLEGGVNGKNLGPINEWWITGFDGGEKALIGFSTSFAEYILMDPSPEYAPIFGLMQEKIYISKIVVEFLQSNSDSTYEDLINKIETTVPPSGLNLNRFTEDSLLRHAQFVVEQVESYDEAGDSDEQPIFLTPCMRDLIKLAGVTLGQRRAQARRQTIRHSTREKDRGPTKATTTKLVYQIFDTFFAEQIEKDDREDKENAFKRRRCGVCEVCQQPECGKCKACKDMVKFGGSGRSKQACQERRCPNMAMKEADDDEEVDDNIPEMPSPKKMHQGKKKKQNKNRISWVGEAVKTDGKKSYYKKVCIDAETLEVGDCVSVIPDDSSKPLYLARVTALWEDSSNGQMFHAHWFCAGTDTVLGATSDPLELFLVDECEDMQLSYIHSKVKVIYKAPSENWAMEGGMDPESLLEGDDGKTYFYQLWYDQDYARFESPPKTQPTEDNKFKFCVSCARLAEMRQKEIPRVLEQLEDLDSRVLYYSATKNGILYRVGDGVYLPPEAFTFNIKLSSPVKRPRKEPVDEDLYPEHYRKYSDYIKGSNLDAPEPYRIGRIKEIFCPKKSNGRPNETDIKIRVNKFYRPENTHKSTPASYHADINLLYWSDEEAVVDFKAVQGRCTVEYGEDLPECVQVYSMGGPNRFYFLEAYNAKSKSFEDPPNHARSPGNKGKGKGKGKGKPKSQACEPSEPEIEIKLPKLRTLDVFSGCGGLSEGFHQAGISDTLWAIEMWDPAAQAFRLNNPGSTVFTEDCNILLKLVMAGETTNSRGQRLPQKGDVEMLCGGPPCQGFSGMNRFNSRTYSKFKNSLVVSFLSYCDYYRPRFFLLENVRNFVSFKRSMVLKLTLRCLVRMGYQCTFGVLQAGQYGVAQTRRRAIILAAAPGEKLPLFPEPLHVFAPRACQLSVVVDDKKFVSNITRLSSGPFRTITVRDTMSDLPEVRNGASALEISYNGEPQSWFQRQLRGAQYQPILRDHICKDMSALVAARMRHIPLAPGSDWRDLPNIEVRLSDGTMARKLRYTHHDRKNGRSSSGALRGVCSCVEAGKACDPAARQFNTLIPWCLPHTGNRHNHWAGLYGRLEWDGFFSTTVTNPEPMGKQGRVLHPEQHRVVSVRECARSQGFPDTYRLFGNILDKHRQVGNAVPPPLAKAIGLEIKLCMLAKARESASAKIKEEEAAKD
Sequence of Nonstructural protein 1 (Q194T2 whole entry): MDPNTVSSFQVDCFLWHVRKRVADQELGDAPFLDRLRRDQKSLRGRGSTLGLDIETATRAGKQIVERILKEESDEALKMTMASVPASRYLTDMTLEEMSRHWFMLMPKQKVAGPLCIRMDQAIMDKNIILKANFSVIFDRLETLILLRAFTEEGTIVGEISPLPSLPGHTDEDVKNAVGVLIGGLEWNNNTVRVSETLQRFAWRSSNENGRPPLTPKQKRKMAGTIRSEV
Sequence of Glyceraldehyde-3-phosphate dehydrogenase (P04406 whole entry): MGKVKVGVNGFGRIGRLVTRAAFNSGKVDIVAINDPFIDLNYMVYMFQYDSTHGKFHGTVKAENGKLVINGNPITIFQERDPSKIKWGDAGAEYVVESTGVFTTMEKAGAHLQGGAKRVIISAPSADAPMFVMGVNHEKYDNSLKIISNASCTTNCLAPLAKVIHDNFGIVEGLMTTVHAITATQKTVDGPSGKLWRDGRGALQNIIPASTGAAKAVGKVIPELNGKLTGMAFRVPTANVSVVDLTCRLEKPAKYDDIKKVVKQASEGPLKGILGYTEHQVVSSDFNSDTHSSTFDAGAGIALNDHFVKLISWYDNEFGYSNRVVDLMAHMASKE
Sequence of Phosphoethanolamine/phosphocholine phosphatase (Q8TCT1 whole entry): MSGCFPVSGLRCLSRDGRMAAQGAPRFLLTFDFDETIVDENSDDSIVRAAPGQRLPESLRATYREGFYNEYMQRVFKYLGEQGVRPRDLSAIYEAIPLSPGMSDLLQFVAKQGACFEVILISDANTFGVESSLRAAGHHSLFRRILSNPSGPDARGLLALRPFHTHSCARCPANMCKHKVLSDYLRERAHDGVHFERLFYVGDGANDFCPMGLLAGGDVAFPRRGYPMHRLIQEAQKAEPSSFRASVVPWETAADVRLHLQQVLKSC
Sequence of Protein Rev (P04618 whole entry): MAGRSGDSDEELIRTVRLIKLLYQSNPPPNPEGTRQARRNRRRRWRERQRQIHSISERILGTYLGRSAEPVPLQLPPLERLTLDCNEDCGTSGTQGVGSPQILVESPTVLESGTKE
Sequence of Glucose-6-phosphate 1-dehydrogenase (P11413 whole entry): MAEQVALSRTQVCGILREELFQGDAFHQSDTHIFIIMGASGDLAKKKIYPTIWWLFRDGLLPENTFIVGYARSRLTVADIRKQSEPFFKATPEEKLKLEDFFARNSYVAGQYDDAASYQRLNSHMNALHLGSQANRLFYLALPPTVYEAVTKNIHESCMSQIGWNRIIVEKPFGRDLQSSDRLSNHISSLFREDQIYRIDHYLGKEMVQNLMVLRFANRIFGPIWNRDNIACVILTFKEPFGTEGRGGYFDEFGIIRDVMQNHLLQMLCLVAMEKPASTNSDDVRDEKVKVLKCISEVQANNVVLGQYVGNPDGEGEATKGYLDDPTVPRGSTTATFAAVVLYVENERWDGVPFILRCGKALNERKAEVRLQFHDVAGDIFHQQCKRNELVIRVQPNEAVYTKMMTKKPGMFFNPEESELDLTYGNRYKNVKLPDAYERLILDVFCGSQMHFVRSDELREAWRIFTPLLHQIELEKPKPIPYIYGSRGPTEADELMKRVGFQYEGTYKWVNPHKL
Sequence of Beta-galactosidase (Q8VNN2 whole entry): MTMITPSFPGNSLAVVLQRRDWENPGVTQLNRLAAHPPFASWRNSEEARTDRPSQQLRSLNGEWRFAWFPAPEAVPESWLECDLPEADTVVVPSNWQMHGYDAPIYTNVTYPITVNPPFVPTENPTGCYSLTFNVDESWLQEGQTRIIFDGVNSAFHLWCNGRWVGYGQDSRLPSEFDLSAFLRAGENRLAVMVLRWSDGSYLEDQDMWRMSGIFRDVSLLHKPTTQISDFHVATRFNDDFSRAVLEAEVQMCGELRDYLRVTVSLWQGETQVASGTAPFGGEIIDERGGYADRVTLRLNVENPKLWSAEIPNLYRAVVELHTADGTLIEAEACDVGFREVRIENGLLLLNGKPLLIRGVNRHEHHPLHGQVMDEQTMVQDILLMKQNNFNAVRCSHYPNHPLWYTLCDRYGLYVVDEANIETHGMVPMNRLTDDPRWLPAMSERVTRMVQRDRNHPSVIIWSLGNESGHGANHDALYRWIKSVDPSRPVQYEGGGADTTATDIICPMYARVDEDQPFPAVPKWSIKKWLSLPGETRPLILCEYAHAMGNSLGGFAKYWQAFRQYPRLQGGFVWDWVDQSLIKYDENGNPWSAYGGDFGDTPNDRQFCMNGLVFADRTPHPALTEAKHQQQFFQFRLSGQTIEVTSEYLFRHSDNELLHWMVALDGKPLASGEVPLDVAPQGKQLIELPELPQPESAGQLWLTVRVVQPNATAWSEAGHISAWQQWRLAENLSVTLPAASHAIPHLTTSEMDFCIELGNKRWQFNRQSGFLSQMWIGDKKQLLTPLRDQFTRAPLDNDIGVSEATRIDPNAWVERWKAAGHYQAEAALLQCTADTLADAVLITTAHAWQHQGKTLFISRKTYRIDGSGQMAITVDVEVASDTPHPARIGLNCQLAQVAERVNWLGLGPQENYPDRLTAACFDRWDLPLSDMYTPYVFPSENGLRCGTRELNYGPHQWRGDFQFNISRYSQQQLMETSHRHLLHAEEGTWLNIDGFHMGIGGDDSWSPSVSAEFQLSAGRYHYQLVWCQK

Question: Which EC50 [1] does the source give for `CCOc1ccc(NC(=O)Nc2cccnc2)cc1` here?
Answer: The EC50 was 14.3 µM (active).

Question: With `O=c1c2ccccc2sn1-c1ccc(S(=O)(=O)N2CCCC2)cc1` as the compound, how does the EC50 [2] read?
Answer: The EC50 was > 20 µM (not active).

Question: What about the IC50 [3] of the same compound?
Answer: Its IC50 is 30.7 µM (inactive).

Question: What about the IC50 [4] of the same compound?
Answer: Its IC50 is > 100 µM (inactive).

Question: What about the EC50 [5] of the same compound?
Answer: Its EC50 is 1.29 µM (active).

Question: What about the IC50 [6] of the same compound?
Answer: Its IC50 is > 50 µM (inactive).

Question: What about the EC50 [7] of the same compound?
Answer: The EC50 was > 20 µM (not active).

Question: And the IC50 [8]?
Answer: The IC50 was 0.489 µM (active).

Question: What about the EC50 [9] of the same compound?
Answer: Its EC50 is > 30 µM (not active).

Question: For `CCCCN(C(=O)c1ccc([N+](=O)[O-])o1)c1c(N)n(CC(C)C)c(=O)[nH]c1=O`, which EC50 [10] is on record?
Answer: Its EC50 is 18.7 µM (active).

Question: And the IC50 [11]?
Answer: Its IC50 is 7.26 µM (active).

Question: What about the IC50 [12] of the same compound?
Answer: Its IC50 is 2.74 µM (active).

Question: And the EC50 [13]?
Answer: Its EC50 is 16 µM (active).

Question: What does the source list for `CS(=O)(=O)/C(C#N)=C/c1ccccc1`?
Answer: IC50 [14]: > 20 µM (inactive); IC50 [15]: > 20 µM (not active)

Question: Which IC50 [16] does the source give for `CCOc1ccc(C=NNc2ccc(S(=O)(=O)Nc3ccccc3C(=O)O)cc2[N+](=O)[O-])cc1` here?
Answer: The IC50 was 4.41 µM (active).

Question: And the IC50 [17]?
Answer: Its IC50 is 15.6 µM (active).

Question: And the IC50 [18]?
Answer: Its IC50 is > 66 µM (inactive).

Question: What about the IC50 [19] of the same compound?
Answer: Its IC50 is 5.78 µM (active).

Question: And the IC50 [20]?
Answer: Its IC50 is 51.3 µM (inactive).

Question: And the IC50 [21]?
Answer: Its IC50 is 3.67 µM (active).

Question: What about the IC50 [22] of the same compound?
Answer: The IC50 was > 66.6 µM (inactive).

Question: And the IC50 [23]?
Answer: Its IC50 is 7.56 µM (active).

Question: With `Cc1cccc(Nc2nc(-c3ccccn3)cs2)n1` as the compound, how does the IC50 [24] read?
Answer: Its IC50 is > 22.3 µM (not active).

Question: What about the IC50 [25] of the same compound?
Answer: Its IC50 is 0.27 µM (active).

Question: What about the CC50 [26] of the same compound?
Answer: The CC50 was 21.8 µM (active).

Question: What about the EC50 [27] of the same compound?
Answer: The EC50 was 7.24 µM (active).

Question: What about the EC50 [5] of the same compound?
Answer: The EC50 was 0.503 µM (active).

Question: And the IC50 [28]?
Answer: The IC50 was 29.6 µM (active).

Question: And the IC50 [29]?
Answer: Its IC50 is > 10 µM (inconclusive).

Question: What about the CC50 [30] of the same compound?
Answer: The CC50 was 11.6 µM (active).

Question: And the EC50 [9]?
Answer: Its EC50 is 8.56 µM (active).

Question: What about the IC50 [31] of the same compound?
Answer: The IC50 was 4.96 µM (active).
